In test [1] the test system is GDF8 signaling (GDF pSMAD, MPC11). Briefly: AlphaScreen SureFire SMAD3 (p-Ser423/425) assay, inhibition of GDF8 signaling. The test is classed as cell-based. Conditions: Mus musculus, MPC-11, inhibition of GDF8 signaling, p-SMAD3 readout. A general note: In Alpha technology, singlet oxygen from a donor bead excites a nearby acceptor bead.
Test [2] deals with TGF-β signaling (TGF-β pSMAD, MPC-11). Briefly: AlphaScreen SureFire SMAD3 (p-Ser423/425) assay, inhibition of TGF-β signaling. In kind it is cell-based. Conditions: Mus musculus, MPC-11, inhibition of TGF-β signaling, p-SMAD3 readout.

As for `Cc1cc(-c2nc(C)n(C)c2-c2ccc3ncsc3c2)ccc1F` [Compound 55, 6-(4-(4-Fluoro-3-methylphenyl)-1,2-dimethyl-1H-imidazol-5-yl)benzo[d]thiazole], the IC50 is 840 nM in test [1] and 7760 nM in test [2].
In the same order, the values of `Cc1cc(-c2nc(N)sc2-c2ccc3nccn3c2)ccc1F` [Compound 155, 4-(4-fluoro-3-methylphenyl)-5-(imidazo[1,2-a]pyridin-6-yl)thiazol-2-amine] are 22.9 nM and 72.4 nM.
The like results for `CCc1nc(-c2cccc(C)c2)c(-c2ccc3[nH]ncc3c2)[nH]1` [Compound 113, 5-(2-Ethyl-4-(m-tolyl)-1H-imidazol-5-yl)-1H-indazole] were, in that order, 460 nM and 3110 nM.
In the same order, the values of `CCc1nc(-c2ccc(F)cc2)c(-c2ccc3[nH]ncc3c2)[nH]1` [Compound 119, 5-(2-Ethyl-4-(4-fluorophenyl)-1H-imidazol-5-yl)-1H-indazole] are 410 nM and 4740 nM.
With `CCc1nc(-c2cccc(C)c2)c(-c2ccc3ncsc3c2)[nH]1` [Compound 116, 6-(2-Ethyl-4-(m-tolyl)-1H-imidazol-5-yl)benzo[d]thiazole], the results for the IC50 in test [1] and in test [2] were 280 nM and 1520 nM, respectively.
The like results for `COc1ccc(-c2nc(N)sc2-c2ccc3nccnc3c2)cc1` [Compound 182, 4-(4-methoxyphenyl)-5-(quinoxalin-6-yl)thiazol-2-amine] were, in that order, 352 nM and 1120 nM.
The like results for `CCc1nc(-c2ccc(F)c(C)c2)c(-c2ccc3nccnc3c2)[nH]1` [Compound 112, 6-(2-Ethyl-4-(4-fluoro-3-methylphenyl)-1H-imidazol-5-yl)quinoxaline] were, in that order, 280 nM and 1370 nM.
For `Cc1nc(-c2ccc(F)cc2)c(-c2ccc3cn[nH]c3c2)[nH]1` [Compound 78, 6-(4-(4-Fluorophenyl)-2-methyl-1H-imidazol-5-yl)-1H-indazole], the IC50 in test [1] was found to be 290 nM; in test [2] it was 2470 nM.
The like results for `Cc1cccc(-c2ncsc2-c2ccc3cn[nH]c3c2)c1` [Compound 153, 5-(1H-indazol-6-yl)-4-(m-tolyl)thiazole] were, in that order, 11.3 nM and 207 nM.
For the molecule `Nc1nc(-c2cccc(C(F)(F)F)c2)c(-c2ccc3ncsc3c2)s1` [Compound 176, 5-(benzo[d]thiazol-6-yl)-4-(3-(trifluoromethyl)phenyl)thiazol-2-amine], the values for the IC50 in test [1] and in test [2] were 158 nM and 600 nM, respectively.
The like results for `Nc1nc(-c2cccc(F)c2)c(-c2ccc3nccnc3c2)s1` [Compound 183, 4-(3-fluorophenyl)-5-(quinoxalin-6-yl)thiazol-2-amine] were, in that order, 365 nM and 1480 nM.
The like results for `Cc1nc(-c2cc(F)c(F)c(F)c2)c(-c2ccc3[nH]ncc3c2)[nH]1` [Compound 90, 5-(2-Methyl-4-(3,4,5-trifluorophenyl)-1H-imidazol-5-yl)-1H-indazole] were, in that order, 630 nM and 3560 nM.
For the molecule `Cc1cc(-c2ncsc2-c2ccc3ncsc3c2)ccc1F` [Compound 165, 6-(4-(4-fluoro-3-methylphenyl)thiazol-5-yl)benzo[d]thiazole], the IC50 in test [1] was 69.6 nM; in test [2] it was 262 nM.
For the molecule `CCc1nc(-c2cccc(Cl)c2)c(-c2ccc3ncccc3c2)[nH]1` [Compound 128, 6-(4-(3-Chlorophenyl)-2-ethyl-1H-imidazol-5-yl)quinoline], the IC50 in test [1] was determined as 460 nM; in test [2] it was 1480 nM.
The like results for `CCc1nc(-c2cccc(C)c2)c(-c2ccc3nccn3c2)[nH]1` [Compound 117, 6-(2-Ethyl-4-(m-tolyl)-1H-imidazol-5-yl)imidazo[1,2-a]pyridine] were, in that order, 330 nM and 2180 nM.
The like results for `c1ccc(-c2nc[nH]c2-c2ccc3[nH]ncc3c2)cc1` [Compound 1, 5-(4-Phenyl-1H-imidazol-5-yl)-1H-indazole] were, in that order, 70 nM and 230 nM.
On to `Cc1nc(-c2ccc(F)c(F)c2)c(-c2ccc3nccnc3c2)[nH]1` [Compound 89, 6-(4-(3,4-Difluorophenyl)-2-methyl-1H-imidazol-5-yl)quinoxaline], for which the IC50 in test [1] was determined as 430 nM; in test [2], 4190 nM.
Regarding `Cn1cnc(-c2cccc(Cl)c2)c1-c1ccc2cn[nH]c2c1` [Compound 61, 6-(4-(3-Chlorophenyl)-1-methyl-1H-imidazol-5-yl)-1H-indazole], the IC50 is 30 nM in test [1] and 150 nM in test [2].
The like results for `CCc1nc(-c2ccc(F)c(F)c2)c(-c2ccc3[nH]ncc3c2)[nH]1` [Compound 130, 5-(4-(3,4-Difluorophenyl)-2-ethyl-1H-imidazol-5-yl)-1H-indazole] were, in that order, 650 nM and 2320 nM.
Take `Cn1cnc(-c2ccc(F)c(F)c2)c1-c1ccc2[nH]ncc2c1` [Compound 64, 5-(4-(3,4-Difluorophenyl)-1-methyl-1H-imidazol-5-yl)-1H-indazole]: the results for the IC50 in test [1] and in test [2] were 90 nM and 270 nM, respectively.
In the same order, the values of `Cc1nc(-c2ccc(F)cc2)c(-c2ccc3ncsc3c2)[nH]1` [Compound 80, 6-(4-(4-Fluorophenyl)-2-methyl-1H-imidazol-5-yl)benzo[d]thiazole] are 220 nM and 1630 nM.
The like results for `Cc1cc(-c2ncn(C)c2-c2ccc3ncsc3c2)ccc1F` [Compound 9, 6-(4-(4-Fluoro-3-methylphenyl)-1-methyl-1H-imidazol-5-yl)benzo[d]thiazole] were, in that order, 60 nM and 330 nM.
The like results for `CCc1nc(-c2cccc(C)c2)c(-c2ccc3nccnc3c2)[nH]1` [Compound 118, 6-(2-Ethyl-4-(m-tolyl)-1H-imidazol-5-yl)quinoxaline] were, in that order, 230 nM and 1390 nM.
As for `Cn1cnc(-c2ccc(F)c(F)c2)c1-c1ccc2ncsc2c1` [Compound 67, 6-(4-(3,4-Difluorophenyl)-1-methyl-1H-imidazol-5-yl)benzo[d]thiazole], the IC50 in test [1] worked out at 580 nM; in test [2], 1680 nM.
The like results for `Cc1cccc(-c2nc[nH]c2-c2ccc3cn[nH]c3c2)c1` [Compound 16, 6-(4-(m-Tolyl)-1H-imidazol-5-yl)-1H-indazole] were, in that order, 20 nM and 100 nM.
The like results for `Cc1nc(-c2cc(F)c(F)cc2F)c(-c2ccc3ncsc3c2)[nH]1` [Compound 99, 6-(2-Methyl-4-(2,4,5-trifluorophenyl)-1H-imidazol-5-yl)benzo[d]thiazole] were, in that order, 40 nM and 240 nM.
In the same order, the values of `Cc1nc(-c2ccc(F)c(F)c2)c(-c2ccc3ncn(C)c3c2)[nH]1` [Compound 85, 6-(4-(3,4-Difluorophenyl)-2-methyl-1H-imidazol-5-yl)-1-methyl-1H-benzo[d]imidazole] are 180 nM and 670 nM.
With `Cc1nc(-c2cc(F)c(F)c(F)c2)c(-c2ccc3ncsc3c2)[nH]1` [Compound 93, 6-(2-Methyl-4-(3,4,5-trifluorophenyl)-1H-imidazol-5-yl)benzo[d]thiazole], the IC50 in test [1] amounted to 300 nM; in test [2] it was 2340 nM.
`Cn1cnc(-c2ccc(F)cc2)c1-c1ccc2cn[nH]c2c1` [Compound 49, 6-(4-(4-Fluorophenyl)-1-methyl-1H-imidazol-5-yl)-1H-indazole]: the 50% inhibitory concentration (IC50) in test [1] amounted to 570 nM; in test [2] it was 1210 nM.
The like results for `CCc1nc(-c2cc(C)cc(F)c2)c(-c2ccc3ncsc3c2)[nH]1` [Compound 145, 6-(2-Ethyl-4-(3-fluoro-5-methylphenyl)-1H-imidazol-5-yl)benzo[d]thiazole] were, in that order, 530 nM and 2950 nM.
In the same order, the values of `COc1cccc(-c2nc(N)sc2-c2ccc3ncsc3c2)c1` [Compound 186, 5-(benzo[d]thiazol-6-yl)-4-(3-methoxyphenyl)thiazol-2-amine] are 478 nM and 1110 nM.
For the molecule `Nc1nc(-c2cccc(Cl)c2)c(-c2ccc3cn[nH]c3c2)s1` [Compound 172, 4-(3-chlorophenyl)-5-(1H-indazol-6-yl)thiazol-2-amine], the IC50 was determined as 121 nM in test [1] and 909 nM in test [2].
The like results for `CCc1nc(-c2ccc(F)cc2)c(-c2ccc3cn[nH]c3c2)[nH]1` [Compound 120, 6-(2-Ethyl-4-(4-fluorophenyl)-1H-imidazol-5-yl)-1H-indazole] were, in that order, 470 nM and 8160 nM.
Take `COc1ccc(-c2nc(N)sc2-c2ccc3cn[nH]c3c2)cc1` [Compound 173, 5-(1H-indazol-6-yl)-4-(4-methoxyphenyl)thiazol-2-amine]: the results for the half-inhibitory concentration (IC50) in test [1] and in test [2] were 124 nM and 898 nM, respectively.
In the case of `Cn1cnc(-c2cccc(Cl)c2)c1-c1ccc2ncn(C)c2c1` [Compound 62, 6-(4-(3-Chlorophenyl)-1-methyl-1H-imidazol-5-yl)-1-methyl-1H-benzo[d]imidazole], the half-maximal inhibitory concentration (IC50) amounted to 50 nM in test [1] and 220 nM in test [2].
The like results for `Cc1nc(-c2ccc(F)c(C)c2)c(-c2ccc3ncsc3c2)[nH]1` [Compound 73, 6-(4-(4-Fluoro-3-methylphenyl)-2-methyl-1H-imidazol-5-yl)benzo[d]thiazole] were, in that order, 100 nM and 950 nM.
The like results for `CCc1nc(-c2cccc(Cl)c2)c(-c2ccc3[nH]ncc3c2)[nH]1` [Compound 124, 5-(4-(3-Chlorophenyl)-2-ethyl-1H-imidazol-5-yl)-1H-indazole] were, in that order, 540 nM and 1340 nM.
In the same order, the values of `Cc1cccc(-c2nc[nH]c2-c2ccc3ncsc3c2)c1` [Compound 18, 6-(4-(m-Tolyl)-1H-imidazol-5-yl)benzo[d]thiazole] are 40 nM and 150 nM.
On to `Nc1nc(-c2cccc(Cl)c2)c(-c2ccc3[nH]ncc3c2)s1` [Compound 168, 4-(3-chlorophenyl)-5-(1H-indazol-5-yl)thiazol-2-amine], for which the IC50 in test [1] worked out at 80 nM; in test [2], 338 nM.

Usually IC50 stands for the point on the concentration scale where inhibition reaches its midpoint. A low value points to greater potency in that assay.

The record behind these values is US10287295B2, “TGF-β inhibitors” (Rigel Pharmaceuticals, Inc., priority 2015, dated 2019).
